One may read the inhibition as the percentage by which the read-out fell short of the control.

The test system of assay [1] is Rat Carrageenan-Induced Footpad Edema. In words: Rat Carrageenan-Induced Footpad Edema Test. The class given is in vivo, male Sprague Dawley rats. The following applies: Rattus norvegicus, 3 h, footpad volume 3 hours after carrageenan, read-out: PERCENT INHIBITION
Assay [2] concerns the target T1, cPLA2 (Homo sapiens, UniProt P47712).
T1 sequence (P47712 1-749): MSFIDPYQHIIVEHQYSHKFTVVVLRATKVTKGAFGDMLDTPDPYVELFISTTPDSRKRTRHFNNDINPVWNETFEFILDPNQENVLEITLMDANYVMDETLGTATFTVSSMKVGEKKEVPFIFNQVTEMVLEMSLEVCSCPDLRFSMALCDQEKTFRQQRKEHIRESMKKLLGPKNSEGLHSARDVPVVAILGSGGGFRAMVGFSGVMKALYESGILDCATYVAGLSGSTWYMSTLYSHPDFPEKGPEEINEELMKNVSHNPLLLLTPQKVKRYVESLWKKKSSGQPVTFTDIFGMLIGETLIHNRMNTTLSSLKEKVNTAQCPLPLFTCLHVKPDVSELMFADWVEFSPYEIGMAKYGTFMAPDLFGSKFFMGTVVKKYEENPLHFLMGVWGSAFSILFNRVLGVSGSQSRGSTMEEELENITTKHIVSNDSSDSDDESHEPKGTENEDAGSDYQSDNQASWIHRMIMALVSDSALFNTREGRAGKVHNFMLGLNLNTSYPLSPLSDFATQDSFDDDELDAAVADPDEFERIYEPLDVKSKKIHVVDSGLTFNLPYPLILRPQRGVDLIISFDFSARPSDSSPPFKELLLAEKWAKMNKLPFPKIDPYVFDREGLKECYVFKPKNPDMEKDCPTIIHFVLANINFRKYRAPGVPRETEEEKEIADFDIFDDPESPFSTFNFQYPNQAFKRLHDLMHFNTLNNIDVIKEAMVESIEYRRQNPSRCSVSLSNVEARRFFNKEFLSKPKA
Description: Coumarin Assay (cPLA2 inhibition). The class given is biochemical. The following applies: for inhibition at 100 µM: CONCENTRATION 100 micromolar; for inhibition at 22 µM: CONCENTRATION 22 micromolar; for inhibition at 24 µM: CONCENTRATION 24 micromolar; for inhibition at 10 µM: CONCENTRATION 10 micromolar; for inhibition at 6.25 µM: CONCENTRATION 6.25 micromolar. Put shortly: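 Percent inhibition at the stated concentration, from the rate of 460 nm emission rise (360 nm excitation) per minute. Reaction started by adding 4 μg enzyme to compound and 60 μM 7-hydroxycoumarinyl 6-heptenoate in Hepes buffer pH 7.5 with 1 mM EDTA.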

The mark [3] stands for this setting: CONCENTRATION 20 micromolar, read-out: PERCENT INHIBITION @.

Each structure is given as a SMILES string. Where “and” joins values, the source holds several entries; their conditions need not be identical. Identical values can stand only once. Like-named read-outs stand apart in the source and are kept apart here.

On to `COc1cc(C(=O)NS(=O)(=O)C(F)(F)F)ccc1Cc1cn(C(c2ccccc2)c2ccccc2)c2ccc(NS(=O)(=O)Cc3ccccc3)cc12` [Example 45, N-[4-({1-benzhydryl-5-[(benzylsulfonyl)amino]-1H-indol-3-yl}methyl)-3-methoxybenzoyl](trifluoro)methanesulfonamide], for which the inhibition in vivo at 5 mg/kg in assay [1] (iv, IV) came out at 10.2%. Besides, the inhibition at 1.75 µM in assay [2] (CONCENTRATION 1.75 micromolar, read-out: PERCENT INHIBITION @) turned out to be 50%. Further, the inhibition at 1.8 µM in assay [2] (CONCENTRATION 1.8 micromolar, read-out: PERCENT INHIBITION @) came to 50%. Also, in assay [2] (CONCENTRATION 1.9 micromolar, read-out: PERCENT INHIBITION @), the inhibition at 1.9 µM turned out to be 50%. Further, in assay [2] (CONCENTRATION 2 micromolar, read-out: PERCENT INHIBITION @), the inhibition at 2 µM is 50%. Besides, the inhibition at 2.1 µM in assay [2] (CONCENTRATION 2.1 micromolar, read-out: PERCENT INHIBITION @) was determined as 50%. Moreover, the inhibition at 2.5 µM in assay [2] (CONCENTRATION 2.5 micromolar, read-out: PERCENT INHIBITION @) was determined as 74%.
`COc1cc(C(=O)O)ccc1Cc1cn(C(c2ccccc2)c2ccccc2)c2ccc(NS(=O)(=O)c3c(C)nn(C)c3Cl)cc12` [Example 95, 4-[(1-benzhydryl-5-{[(5-chloro-1,3-dimethyl-1H-pyrazol-4-yl)sulfonyl]amino}-1H-indol-3-yl)methyl]-3-methoxybenzoic acid]: in assay [1] (po, PO), the inhibition in vivo at 2 mg/kg turned out to be 14.9% and the inhibition in vivo at 10 mg/kg came out at 23.2%. For the same molecule, the inhibition at 11.5 µM in assay [2] (CONCENTRATION 11.5 micromolar, read-out: PERCENT INHIBITION @) was determined as 50%. Moreover, the inhibition at 13 µM in assay [2] (CONCENTRATION 13 micromolar, read-out: PERCENT INHIBITION @) was 50%.
On to `O=C(O)CCNC(=O)C(=O)c1cn(C(c2ccccc2)c2ccccc2)c2ccc(NC(=O)C3CCCC3)cc12` [Example 103, 3-[(2-{1-benzhydryl-5-[(cyclopentylcarbonyl)amino]-1H-indol-3-yl}-2-oxoacetyl)amino]propanoic acid], for which, in assay [1] (po, PO), the inhibition in vivo at 2 mg/kg was found to be 16.5% and the inhibition in vivo at 10 mg/kg stood at 17.3%. The inhibition at 100 µM in assay [2] (read-out: PERCENT INHIBITION @) stood at 50%. Further, the inhibition at 104 µM in assay [2] (CONCENTRATION 104 micromolar, read-out: PERCENT INHIBITION @) is 50%.
In the case of `O=C(Nc1cccc(C(=O)O)c1)C(=O)c1cn(C(c2ccccc2)c2ccccc2)c2ccc(NC(=O)C3CCCC3)cc12` [Example 104, 3-[(2-{1-benzhydryl-5-[(cyclopentylcarbonyl)amino]-1H-indol-3-yl}-2-oxoacetyl)amino]benzoic acid], in assay [1] (po, PO), the inhibition in vivo at 2 mg/kg was 14.5% and the inhibition in vivo at 10 mg/kg was determined as 6.01%. Also, in assay [2] (read-out: PERCENT INHIBITION @), the inhibition at 22 µM was found to be 50% and the inhibition at 24 µM was 50%.
Turning to `O=C(O)/C=C/c1cn(C(c2ccccc2)c2ccccc2)c2ccc([N+](=O)[O-])cc12` [Example 87A, (E)-3-{1-benzhydryl-5-nitro-1H-indol-3-yl}-2-propenoic acid], in assay [1] (po, PO), the inhibition in vivo at 2 mg/kg was 12.9% and the inhibition in vivo at 10 mg/kg amounted to 25.4%. Besides, the inhibition at 50 µM in assay [2] (CONCENTRATION 50 micromolar, read-out: PERCENT INHIBITION @) amounted to 33%. The inhibition at 95 µM in assay [2] (CONCENTRATION 95 micromolar, read-out: PERCENT INHIBITION @) came to 50%.
Regarding `O=C(Cc1cn(Cc2ccc(Cc3ccccc3)cc2)c2ccc(OCc3ccccc3)cc12)Nc1cccc(C(=O)O)c1` [Example 105, 3-({2-[1-(4-benzylbenzyl)-5-(benzyloxy)-1H-indol-3-yl]acetyl}amino)benzoic acid], the inhibition in vivo at 5 mg/kg in assay [1] (iv, IV) is 1.51%. Besides, the inhibition at 2.4 µM in assay [2] (CONCENTRATION 2.4 micromolar, read-out: PERCENT INHIBITION @) stood at 50%. In addition, the inhibition at 7 µM in assay [2] (CONCENTRATION 7 micromolar, read-out: PERCENT INHIBITION @) was 50%. For the same molecule, in assay [2] (read-out: PERCENT INHIBITION @), the inhibition at 10 µM was determined as 74%.
`CS(=O)(=O)NC(=O)/C=C/c1cn(C(c2ccccc2)c2ccccc2)c2ccc([N+](=O)[O-])cc12` [Example 87B, N-((E)-3-{1-benzhydryl-5-nitro-1H-indol-3-yl}-2-propenoyl)methanesulfonamide]: in assay [1] (po, PO, 3 mg/Kg), the inhibition in vivo at 3 mg/kg was determined as 17.9%. For the same molecule, the inhibition in vivo at 10 mg/kg in assay [1] (po, PO) turned out to be 31.4%. Further, the inhibition at 38 µM in assay [2] (CONCENTRATION 38 micromolar, read-out: PERCENT INHIBITION @) was 50%. Besides, in assay [2] (CONCENTRATION 42.5 micromolar, read-out: PERCENT INHIBITION @), the inhibition at 42.5 µM was found to be 50%.
As to `O=C(NS(=O)(=O)C(F)(F)F)c1ccc(Cc2cn(C(c3ccccc3)c3ccccc3)c3ccc([N+](=O)[O-])cc23)cc1` [Example 55, N-{4-[(1-benzhydryl-5-nitro-1H-indol-3-yl)methyl]benzoyl}(trifluoro)methanesulfonamide], in assay [1] (po, PO), the inhibition in vivo at 2 mg/kg turned out to be 7.02% and the inhibition in vivo at 10 mg/kg was determined as 21.5%. Also, in assay [2] (CONCENTRATION 1.35 micromolar, read-out: PERCENT INHIBITION @), the inhibition at 1.35 µM turned out to be 50%.
As to `O=C(O)c1ccc(CN2C(=O)S/C(=C/c3cn(CCCOc4cccc(Cc5ccccc5)c4)c4ccccc34)C2=O)cc1` [Example 82B, 4-{[5-((E)-{1-[3-(3-benzylphenoxy)propyl]-1H-indol-3-yl}methylidene)-2,4-dioxo-1,3-thiazolan-3-yl]methyl}benzoic acid], the inhibition in vivo at 5 mg/kg in assay [1] (iv, IV) was 4.94%. Also, the inhibition at 6.25 µM in assay [2] (read-out: PERCENT INHIBITION @) is 61%. The inhibition at 6.5 µM in assay [2] (CONCENTRATION 6.5 micromolar, read-out: PERCENT INHIBITION @) was 50%.
Regarding `COc1cc(C(=O)O)ccc1Cc1cn(C(c2ccccc2)c2ccccc2)c2ccc(NC(=O)OC3CCCC3)cc12` [Example 3, 4-[(1-benzhydryl-5-{[(cyclopentyloxy)carbonyl]amino}1H-indol-3-yl)methyl]-3-methoxybenzoic acid], the inhibition in vivo at 5 mg/kg in assay [1] (po, PO) was 21.5%. In addition, the inhibition in vivo at 20 mg/kg in assay [1] (po, PO-, 20 mg/Kg) turned out to be 19.6%. The inhibition at 5 µM in assay [2] (CONCENTRATION 5 micromolar, read-out: PERCENT INHIBITION @) is 50%. For the same molecule, in assay [2] (read-out: PERCENT INHIBITION @), the inhibition at 6.25 µM was 51%, the inhibition at 10 µM was 41%, the inhibition at 22 µM amounted to 50% and the inhibition at 24 µM was found to be 50%. Further, the inhibition at 100 µM in assay [2] (read-out: PERCENT INHIBITION @) worked out at 39%. In assay [2] (CONCENTRATION 6.4 micromolar, read-out: PERCENT INHIBITION @), the inhibition at 6.4 µM stood at 50%. Further, the inhibition at 17.5 µM in assay [2] (CONCENTRATION 17.5 micromolar, read-out: PERCENT INHIBITION @) is 50%. Besides, the inhibition at 19 µM in assay [2] (CONCENTRATION 19 micromolar, read-out: PERCENT INHIBITION @) was determined as 50%. Further, in assay [2] (CONCENTRATION 20 micromolar), the “PERCENT INHIBITION @” value is 38% and 43% and 44%. Moreover, in assay [2] (setting [3]), the inhibition at 20 µM stood at 37%. For the same molecule, the inhibition at 23 µM in assay [2] (CONCENTRATION 23 micromolar, read-out: PERCENT INHIBITION @) is 50%. In addition, the inhibition at 23.5 µM in assay [2] (CONCENTRATION 23.5 micromolar, read-out: PERCENT INHIBITION @) was 50%.
With `Cc1ccccc1S(=O)(=O)NC(=O)c1cn(C(c2ccccc2)c2ccccc2)c2ccc(NC(=O)C3CCCC3)cc12` [Example 102, N-[1-benzhydryl-3-({[(2-methylphenyl)sulfonyl]amino}carbonyl)-1H-indol-5-yl]cyclopentanecarboxamide], in assay [1] (po, PO), the inhibition in vivo at 2 mg/kg came to 2.56% and the inhibition in vivo at 10 mg/kg turned out to be 8.48%. The inhibition at 20 µM in assay [2] (setting [3]) came out at 31%. Also, the inhibition at 48 µM in assay [2] (CONCENTRATION 48 micromolar, read-out: PERCENT INHIBITION @) was 50%.
